Test system: GNS166 cells
Assay: Label-free proteomics differential expression
Assay type: cell-based, human
Procedure: Proteomic studies were performed by the Proteomics Facility of the CIC bioGUNE by label-free relative quantification on nLC MS/MS. […] In both approaches, the top 20 enriched terms were plotted and the pathways were clustered using divisive hierarchical clustering based on pairwise Jaccard distances.

C#CCN(Cc1cc2cc(OCCCN3CCCCC3)ccc2n1S(=O)(=O)c1ccccc1)C(=O)CCCCCCC(=O)NO [DDI]
Direction ANR52_HUMAN (protein Q8NB46): Down
LogFC ANR52_HUMAN (protein Q8NB46): -3.184
Direction TTC13_HUMAN (protein Q8NBP0): Down
LogFC TTC13_HUMAN (protein Q8NBP0): -1.381
LogFC KMT2C_HUMAN (protein Q8NEZ4 GN=KMT2C): 0.407
LogFC PLBL2_HUMAN (protein Q8NHP8 GN=PLBD2): 1.378
LogFC NEDD1_HUMAN (protein Q8NHV4 GN=NEDD1): 0.5958
LogFC SMRC2_HUMAN (protein Q8TAQ2 GN=SMARCC2): -0.7509
LogFC CX038_HUMAN (protein Q8TB03 GN=CXorf38): 1.347
LogFC GDAP1_HUMAN (protein Q8TB36 GN=GDAP1): 1.874
Direction CIP2A_HUMAN (protein Q8TCG1): Down
LogFC CIP2A_HUMAN (protein Q8TCG1): -1.2095
LogFC DDX54_HUMAN (protein Q8TDD1 GN=DDX54): -1.067
Direction DTD1_HUMAN (protein Q8TEA8): Down
LogFC DTD1_HUMAN (protein Q8TEA8): -0.5287
LogFC PPIL4_HUMAN (protein Q8WUA2 GN=PPIL4): -1.325
Direction LMBR1_HUMAN (protein Q8WVP7): Down
LogFC LMBR1_HUMAN (protein Q8WVP7): -0.9571
LogFC FACR1_HUMAN (protein Q8WVX9 GN=FAR1): 0.64
LogFC UBCP1_HUMAN (protein Q8WVY7 GN=UBLCP1): 1.245
Direction ATX2L_HUMAN (protein Q8WWM7): Down
LogFC ATX2L_HUMAN (protein Q8WWM7): -0.7543
Direction PHIP_HUMAN (protein Q8WWQ0): Down
LogFC PHIP_HUMAN (protein Q8WWQ0): -2.692
Direction NELFB_HUMAN (protein Q8WX92): Down
LogFC NELFB_HUMAN (protein Q8WX92): -0.7153
Direction ATLA1_HUMAN (protein Q8WXF7): Down
LogFC ATLA1_HUMAN (protein Q8WXF7): -1.239
Direction CND3_HUMAN (protein Q9BPX3): Down
LogFC CND3_HUMAN (protein Q9BPX3): -1.5744
Direction FSP1_HUMAN (protein Q9BRQ8): Down
LogFC FSP1_HUMAN (protein Q9BRQ8): -0.8531
Direction GCP2_HUMAN (protein Q9BSJ2): Down
LogFC GCP2_HUMAN (protein Q9BSJ2): -1.427
LogFC P4K2A_HUMAN (protein Q9BTU6 GN=PI4K2A): 1.541
LogFC TMM43_HUMAN (protein Q9BTV4 GN=TMEM43): -0.7287
LogFC MKNK1_HUMAN (protein Q9BUB5 GN=MKNK1): 1.242
LogFC TBB2B_HUMAN (protein Q9BVA1 GN=TUBB2B): 1.2351
Direction PBDC1_HUMAN (protein Q9BVG4): Down
LogFC PBDC1_HUMAN (protein Q9BVG4): -0.9108
Direction KIFC1_HUMAN (protein Q9BW19): Down
LogFC KIFC1_HUMAN (protein Q9BW19): -4.377
Direction NADAP_HUMAN (protein Q9BWU0): Down
LogFC NADAP_HUMAN (protein Q9BWU0): -0.9102
Direction LS14B_HUMAN (protein Q9BX40): Down
LogFC LS14B_HUMAN (protein Q9BX40): -1.3017
Direction NUSAP_HUMAN (protein Q9BXS6): Down
LogFC NUSAP_HUMAN (protein Q9BXS6): -2.873
Direction EIF2A_HUMAN (protein Q9BY44): Down
LogFC EIF2A_HUMAN (protein Q9BY44): -0.2917
LogFC PDIP3_HUMAN (protein Q9BY77 GN=POLDIP3): -0.8716
LogFC GNB1L_HUMAN (protein Q9BYB4 GN=GNB1L): 2.567
LogFC PAR6B_HUMAN (protein Q9BYG5 GN=PARD6B): 1.231
LogFC ARL6_HUMAN (protein Q9H0F7 GN=ARL6): 2.762
Direction RGAP1_HUMAN (protein Q9H0H5): Down
LogFC RGAP1_HUMAN (protein Q9H0H5): -3.033
Direction SMG9_HUMAN (protein Q9H0W8): Down
LogFC SMG9_HUMAN (protein Q9H0W8): -1.751
Direction YTDC2_HUMAN (protein Q9H6S0): Down
LogFC YTDC2_HUMAN (protein Q9H6S0): -1.289
LogFC ANKZ1_HUMAN (protein Q9H8Y5 GN=ANKZF1): 2.2814
LogFC EHMT1_HUMAN (protein Q9H9B1 GN=EHMT1): -1.629
Direction EHD4_HUMAN (protein Q9H223): Down
LogFC EHD4_HUMAN (protein Q9H223): -0.4023
LogFC FN3K_HUMAN (protein Q9H479 GN=FN3K): -1.71
Direction HEAT1_HUMAN (protein Q9H583): Down
LogFC HEAT1_HUMAN (protein Q9H583): -0.4862
Direction PHAX_HUMAN (protein Q9H814): Down
LogFC PHAX_HUMAN (protein Q9H814): -0.7063
LogFC NT5D2_HUMAN (protein Q9H857 GN=NT5DC2): 0.9697
Direction ZWILC_HUMAN (protein Q9H900): Down
LogFC ZWILC_HUMAN (protein Q9H900): -1.417
LogFC QTRT2_HUMAN (protein Q9H974 GN=QTRT2): -0.9473
LogFC WDR54_HUMAN (protein Q9H977 GN=WDR54): 2.021
LogFC ARMT1_HUMAN (protein Q9H993 GN=ARMT1): 1.113
LogFC KT3K_HUMAN (protein Q9HA64 GN=FN3KRP): 0.7505
Direction TM165_HUMAN (protein Q9HC07): Down
LogFC TM165_HUMAN (protein Q9HC07): -0.8409
Direction CWC22_HUMAN (protein Q9HCG8): Down
LogFC CWC22_HUMAN (protein Q9HCG8): -0.5601
LogFC VAT1L_HUMAN (protein Q9HCJ6 GN=VAT1L): 1.2681
Direction RM47_HUMAN (protein Q9HD33): Down
LogFC RM47_HUMAN (protein Q9HD33): -0.8741
Direction TM9S3_HUMAN (protein Q9HD45): Down
LogFC TM9S3_HUMAN (protein Q9HD45): -0.5879
Direction HM20A_HUMAN (protein Q9NP66): Down
LogFC HM20A_HUMAN (protein Q9NP66): -1.261
LogFC TNR12_HUMAN (protein Q9NP84 GN=TNFRSF12A): -2.0106
Direction LUC7L_HUMAN (protein Q9NQ29): Down
LogFC LUC7L_HUMAN (protein Q9NQ29): -0.6796
Direction SSF1_HUMAN (protein Q9NQ55): Down
LogFC SSF1_HUMAN (protein Q9NQ55): -1.815
LogFC CL004_HUMAN (protein Q9NQ89 GN=C12orf4): 1.057
LogFC ITM2C_HUMAN (protein Q9NQX7 GN=ITM2C): 1.931
LogFC DBLOH_HUMAN (protein Q9NR28 GN=DIABLO): 1.0021
LogFC DDX21_HUMAN (protein Q9NR30 GN=DDX21): -1.5607
LogFC HEBP1_HUMAN (protein Q9NRV9 GN=HEBP1): 1.384
Direction ABC3C_HUMAN (protein Q9NRW3): Down
LogFC ABC3C_HUMAN (protein Q9NRW3): -0.8611
Direction LANC2_HUMAN (protein Q9NS86): Down
LogFC LANC2_HUMAN (protein Q9NS86): -1.981
LogFC HOME3_HUMAN (protein Q9NSC5 GN=HOMER3): 1.625
Direction F207A_HUMAN (protein Q9NSI2): Down
LogFC F207A_HUMAN (protein Q9NSI2): -1.761
LogFC DIAP3_HUMAN (protein Q9NSV4 GN=DIAPH3): -2.473
Direction SMC4_HUMAN (protein Q9NTJ3): Down
LogFC SMC4_HUMAN (protein Q9NTJ3): -1.4105
Direction TYDP1_HUMAN (protein Q9NUW8): Down
LogFC TYDP1_HUMAN (protein Q9NUW8): -1.1128
Direction FANCI_HUMAN (protein Q9NVI1): Down
LogFC FANCI_HUMAN (protein Q9NVI1): -3.564
Direction EVA1B_HUMAN (protein Q9NVM1): Down
LogFC EVA1B_HUMAN (protein Q9NVM1): -3.511
Direction THG1_HUMAN (protein Q9NWX6): Down
